Test results taken from patent US7408063B2, “1,8-annelated quinoline derivatives substituted with carbon-linked triazoles as farnesyl transferase inhibitors” (Janssen Pharmaceutica, N.V., priority 2001, dated 2008).

Experiments:
[1] = target: farnesyl protein transferase (Homo sapiens, UniProt P49354+P49356); experiment: In vitro assay for inhibition of farnesyl protein transferase; assay type: biochemical; conditions: negative log value of the IC50-value; IC50 = concentration needed to reduce the product of the enzymatic reaction to 50% of the control; read-out: Enzyme activity pIC50 (converted)
Protocol: An in vitro assay for inhibition of farnesyl transferase was performed essentially as described in WO 98/40383, pages 33-34. When appropriate, IC50-values (concentration of the drug, needed to reduce the product of the enzymatic reaction, to 50% of the conrol) were computed using probit analysis for graded data (Finney, D. J., Probit Analuses, 2nd Ed. Chapter 10, Graded Responses, Cambridge Univerity Press, Cambridge 1962). Herein (see table F-3) the effects of test compounds are expressed as pIC50 (the negative log value of the IC50-value). Also the intermediate compounds described in the table F-1 show activity in the in vitro assay for inhibition of farnesyl protein transferase.

Structure (SMILES) | melting point | IC50 [1]
Cn1cnnc1C(c1ccc(I)cc1)c1cc2c3c(c1)c(-c1cccc(Cl)c1)cc(=O)n3CC2 (stereo not shown) (hydrate or solvate) [Compound 1, 6-(3-chlorophenyl)-1,2-dihydro-8-[(4-iodophenyl)(4-methyl-4H-1,2,4-triazol-3-yl)methyl]-4H-pyrrolo[3,2,1-ij]quinolin-4-one] | 194 °C | 
Cn1cnnc1C(c1ccc(I)cc1)c1cc2c3c(c1)c(-c1cccc(Cl)c1)cc(=O)n3CC2 (stereo not shown) [Compound 1, 6-(3-chlorophenyl)-1,2-dihydro-8-[(4-iodophenyl)(4-methyl-4H-1,2,4-triazol-3-yl)methyl]-4H-pyrrolo[3,2,1-ij]quinolin-4-one] |  | 21.4 nM
Cn1cnnc1C(c1ccc(C#N)cc1)c1cc2c3c(c1)c(-c1cccc(Cl)c1)cc(=O)n3CC2 (stereo not shown) [Compound 2, 4-[[6-(3-chlorophenyl)-1,2-dihydro-4-oxo-4H-pyrrolo[3,2,1-ij]quinolin-8-yl](4-methyl-4H-1,2,4-triazol-3-yl)methyl]-benzonitrile] | 174 °C | 2.02 nM
Cn1cnnc1C(O)(c1ccc(Cl)cc1)c1cc2c3c(c1)c(-c1cccc(Cl)c1)cc(=O)n3CCC2 (stereo not shown) [Compound 3, 7-(3-chlorophenyl)-9-[(4-chlorophenyl)hydroxy(4-methyl-4H-1,2,4-triazol-3-yl)methyl]-2,3-dihydro-1H,5H-benzo[ij]quinolizin-5-one] | 183 °C | 8.18 nM
COC(c1ccc(Cl)cc1)(c1cc2c3c(c1)c(-c1cccc(Cl)c1)cc(=O)n3CCC2)c1nncn1C (stereo not shown) [Compound 6, 7-(3-chlorophenyl)-9-[(4-chlorophenyl)methoxy(4-methyl-4H-1,2,4-triazol-3-yl)methyl]-2,3-dihydro-1H,5H-benzo[ij]quinolizin-5-one] | 132 °C | < 100 nM
Cn1cnnc1C(OCCO)(c1ccc(F)cc1)c1cc2c3c(c1)c(-c1cccc(Cl)c1)cc(=O)n3CC2 (stereo not shown) [Compound 7, 6-(3-chlorophenyl)-8-[(4-fluorophenyl)(2-hydroxyethoxy)(4-methyl-4H-1,2,4-triazol-3-yl)methyl]-1,2-dihydro-4H-pyrrolo[3,2,1-ij]quinolin-4-one] | 138 °C | 3.95 nM
Cn1cnnc1C(c1ccc(F)cc1)(c1cc2c3c(c1)c(-c1cccc(Cl)c1)cc(=O)n3CC2)n1ccnc1 (stereo not shown) [Compound 8, 6-(3-chlorophenyl)-8-[(4-fluorophenyl)-1H-imidazol-1-yl(4-methyl-4H-1,2,4-triazol-3-yl)methyl]-1,2-dibydro-4H-pyrrolo[3,2,1-ij]quinolin-4-one] |  | 3.84 nM
Cn1cnnc1C(O)(c1ccc(Cl)cc1)c1cc2c3c(c1)c(-c1ccc(Cl)cc1)cc(=O)n3CC2 (stereo not shown) [Compound 11] |  | < 100 nM
Cn1cnnc1C(O)(c1ccc(Cl)cc1)c1cc2c3c(c1)c(-c1cccc(Cl)c1)c(Br)c(=O)n3CC2 (stereo not shown) [Compound 12] |  | > 100 nM
Cn1cnnc1C(O)(c1ccc(Br)cc1)c1cc2c3c(c1)c(-c1cccc(Br)c1)cc(=O)n3CC2 (stereo not shown) [Compound 13] |  | 5.86 nM

The remaining lines, values ahead:

melting point | IC50 [1] | Structure (SMILES)
 | 5.77 nM | Cn1cnnc1C(O)(c1ccc(F)cc1)c1cc2c3c(c1)c(-c1cccc(Cl)c1)cc(=O)n3CC2 (stereo not shown) [Compound 4, 6-(3-chlorophenyl)-8-[(4-fluorophenyl)hydroxy(4-methyl-4H-1,2,4-triazol-3-yl)methyl]-1,2-dihydro-4H-pyrrolo[3,2,1-ij]quinolin-4-one]
196 °C | 3.4 nM | CC(=O)NC(c1ccc(F)cc1)(c1cc2c3c(c1)c(-c1cccc(Cl)c1)cc(=O)n3CC2)c1nncn1C (stereo not shown) [Compound 5, N-[[6-(3-chlorophenyl)-1,2-dihydro-4-oxo-4H-pyrrolo[3,2,1-ij]quinolin-8-yl](4-fluorophenyl)(4-methyl-4H-1,2,4-triazol-3-yl)methyl]-acetamide]
 | 2.98 nM | Cn1cnnc1C(N)(c1ccc(F)cc1)c1cc2c3c(c1)c(-c1cccc(Cl)c1)cc(=O)n3CC2 (stereo not shown) [Compound 9, 8-[amino(4-fluorophenyl)(4-methyl-4H-1,2,4-triazol-3-yl)methyl]-6-(3-chlorophenyl)-1,2-dihydro-4H-pyrrolo[3,2,1-ij]quinolin-4-one]
 | 29.3 nM | COC(c1ccc(F)cc1)(c1cc2c3c(c1)c(-c1cccc(Cl)c1)cc(=O)n3CC2)c1nncn1C (stereo not shown) [Compound 10, 6-(3-chlorophenyl)-8-[(4-fluorophenyl)methoxy(4-methyl-4H-1,2,4-triazol-3-yl)methyl]-1,2-dihydro-4H-pyrrolo[3,2,1-ij]quinolin-4-one]
